These are literature values, as cited in US20250002910A1, “TREATMENT OF COMPLEMENT-MEDIATED DISORDERS” (Apellis Pharmaceuticals, Inc., priority 2021, published 2025).

In this series the test system is complement activation. Conditions: relative to compstatin amidated at the C-terminus; published data.
In the case of “Ac-ICV(1-Nal)QDWGAHRCT-COOH [AcV4(1-Nal)/H9A-OH]”, the Activity over compstatin is given as 30x more.

Turning to “Ac-ICV(2-IgI)QDWGAHRCT-CONH2 [Ac-V42lgl/H9A]”, the Activity over compstatin is 39x more.

Consider “Ac-ICV(2-IgI)QDWGAHRCT-COOH [Ac-V42lgl/H9A-OH]”, for which the Activity over compstatin was 37x more.

As for “Ac-ICV(2-Nal)QDWGAHRCT-CONH2 [Ac-V4(2-Nal)/H9A]”, the Activity over compstatin is given as 99x more.

In the case of “Ac-ICV(2-Nal)QDWGAHRCT-COOH [AcV4(2-Nal)/H9A-OH]”, the Activity over compstatin was 38x more.

“Ac-ICV(Bpa)QDWGAHRCT-CONH2 [Ac-V4(Bpa)/H9A]”: the Activity over compstatin is reported as 86x more.

With “Ac-ICV(Bpa)QDWGAHRCT-COOH [Ac-V4(Bpa)/H9A-OH]”, the Activity over compstatin was 49x more.

“Ac-ICVDhtQDWGAHRCT-COOH [Ac-V4Dht/H9A-OH]”: the Activity over compstatin was 5x more.

On to Ac-ICVVQDWGHHRCT-CONH2 [Ac-compstatin], for which the Activity over compstatin is reported as 3x more.

Consider “Ac-ICVWQD(5fW)GAHRCT-CONH2 [Ac-V4W/W7(5fW)/H9A]”, for which the Activity over compstatin was 121x more.

As for “Ac-ICVWQDWGAHRCT-CONH2 (Ac-ICVWQDWGAHRCT-NH2; not fully specified (bridges); printed as Ac-ICVWQDWGAHRCT-CONH2; cysteine pairing not given here) [Ac-V4W/H9A]”, the Activity over compstatin is 45x more.

Regarding “Ac-ICVWQDWGAHRCdT-COOH [Ac-V4W/H9A/T13dT-OH]”, the Activity over compstatin was 55x more.

As for Ac-ICVYQDWGAHRCT-CONH2 [Ac-V4Y/H9A], the Activity over compstatin is 14x more.

“H-GICV(6fW)QD(6fW)GAHRCTN-COOH [+G/V4(6fW)/W7(6fW)H9A+N-OH]”: the Activity over compstatin was 126x more.
